In ChEMBL document CHEMBL1128653, “Synthesis of 4-fluoroadenosine as an inhibitor of S-adenosyl-L-homocysteine hydrolase” (Bioorg Med Chem Lett, 1995):

T1: Adenosylhomocysteinase (Rattus norvegicus) (UniProt P10760)
T1 sequence (whole entry): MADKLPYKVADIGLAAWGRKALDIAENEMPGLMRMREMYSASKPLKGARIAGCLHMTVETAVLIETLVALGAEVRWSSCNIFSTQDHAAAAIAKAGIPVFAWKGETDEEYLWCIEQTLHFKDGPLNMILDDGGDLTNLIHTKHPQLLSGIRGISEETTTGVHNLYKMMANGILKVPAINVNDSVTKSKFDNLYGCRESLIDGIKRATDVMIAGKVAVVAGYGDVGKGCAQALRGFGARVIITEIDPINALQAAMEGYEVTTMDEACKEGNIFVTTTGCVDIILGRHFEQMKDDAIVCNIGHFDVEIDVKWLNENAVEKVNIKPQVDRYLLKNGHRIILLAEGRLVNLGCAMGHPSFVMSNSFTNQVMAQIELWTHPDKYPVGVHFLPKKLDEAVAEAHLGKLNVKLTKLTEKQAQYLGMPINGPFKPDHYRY

T2: Adenosylhomocysteinase (Rattus norvegicus, UniProt P10760)
T2 sequence (P10760 whole entry): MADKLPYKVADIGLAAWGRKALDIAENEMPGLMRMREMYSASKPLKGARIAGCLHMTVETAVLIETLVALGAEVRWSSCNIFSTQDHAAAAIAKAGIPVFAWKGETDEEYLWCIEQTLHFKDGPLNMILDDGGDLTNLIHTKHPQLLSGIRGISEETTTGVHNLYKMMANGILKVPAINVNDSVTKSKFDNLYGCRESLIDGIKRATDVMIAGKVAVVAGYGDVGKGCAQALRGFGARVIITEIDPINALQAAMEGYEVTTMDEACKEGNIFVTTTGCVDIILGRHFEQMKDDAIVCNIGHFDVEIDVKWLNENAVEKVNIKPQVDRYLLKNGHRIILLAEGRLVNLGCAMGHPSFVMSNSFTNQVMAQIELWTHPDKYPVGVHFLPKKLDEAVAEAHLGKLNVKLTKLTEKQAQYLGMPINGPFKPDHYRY

B1: Adenosylhomocysteinase (Rattus norvegicus), P10760 (protein)
chain: MADKLPYKVADIGLAAWGRKALDIAENEMPGLMRMREMYSASKPLKGARIAGCLHMTVETAVLIETLVALGAEVRWSSCNIFSTQDHAAAAIAKAGIPVFAWKGETDEEYLWCIEQTLHFKDGPLNMILDDGGDLTNLIHTKHPQLLSGIRGISEETTTGVHNLYKMMANGILKVPAINVNDSVTKSKFDNLYGCRESLIDGIKRATDVMIAGKVAVVAGYGDVGKGCAQALRGFGARVIITEIDPINALQAAMEGYEVTTMDEACKEGNIFVTTTGCVDIILGRHFEQMKDDAIVCNIGHFDVEIDVKWLNENAVEKVNIKPQVDRYLLKNGHRIILLAEGRLVNLGCAMGHPSFVMSNSFTNQVMAQIELWTHPDKYPVGVHFLPKKLDEAVAEAHLGKLNVKLTKLTEKQAQYLGMPINGPFKPDHYRY

Legend:
[1] = biological target: T1, Adenosylhomocysteinase (Rattus norvegicus); assay: Inhibitory activity against rat liver S-adenosyl-L-homocysteine hydrolase
[2] = biological target: T2, Adenosylhomocysteinase; assay: Inhibitory constant against rat liver S-adenosyl-L-homocysteine hydrolase
[3] = substrate: Nc1ncnc2c1ncn2C1O[C@](F)(CO)[C@@H](O)[C@H]1O; assay: Michaelis constant towards rat liver S-adenosyl-L-homocysteine hydrolase was calculated

Molecule	kinact [1]	Ki [2]	Km [3]
Nc1ncnc2c1ncn2C1O[C@](F)(CO)[C@@H](O)[C@H]1O (stereo partly drawn)	0.24 min⁻¹	166 µM	–
B1	–	–	1 µM
